# According to patent US20230123334A1, “AMINO LIPID COMPOUND, PREPARATION METHOD THEREFOR, AND APPLICATION THEREOF” (SHENZHEN SHENXIN BIOTECHNOLOGY CO., LTD., priority 2020, published 2023):
# Key:
# [1] = tested on: HEK293 cells; assay: Preliminary screening as mRNA vectors, EGFP mRNA transfection of HEK293 cells; format: cell-based; conditions: HEK293 cells, 96-well plates, EGFP mRNA 50 ng per well; percentage of GFP fluorescent cells relative to total number of cells (Hoechst)
# Summary of the method: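 Screening format: EGFP mRNA transfection (50 ng/well) into HEK293 in 10% FBS-supplemented DMEM. Percent green fluorescent cells, normalised to Hoechst nuclear count, gave the value; Lipofectamine2000 was the reference transfectant.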
# [2] = tested on: HEK293 cells; assay: Preliminary screening as DNA vectors, GFP transfection of HEK293 cells; format: cell-based; conditions: HEK293 cells; lipid/DOPE liposome with 75 ng plasmid DNA (psin-EGFP-IRES-Puro); number of cells expressing GFP divided by total number of nuclei (Hoechst)
# Summary of the method: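 First, amino lipid and DOPE were vortexed in sodium acetate buffer (pH 5.6) to form liposomes. Next, these were held with 75 ng EGFP plasmid at room temperature for 30 min. Finally, HEK293 cells were added, cultured at 37° C., Hoechst-stained, and GFP+/total nuclei scored by imaging.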
Compound,Absolute mRNA transfection efficiency in HEK293 cells [1],Absolute DNA transfection efficiency in HEK293 cells [2]
CCCCCCCCCCCCN(CCCCCCCCCCCC)c1nc(NCCCCCCCC)nc(NCCCN2CCN(C)CC2)n1 [N8^2N12D9],0.4%,0.2%
CCCCCCCCCCCCCCCSc1nc(NCCN2CCCC2)nc(SCCCCCCCCCCCCCC)n1 [Compound S14S15D3],0.0%,0.3%
CCCCCCCCCCCCCCCSc1nc(NCC2CCN(C)CC2)nc(SCCCCCCCCCC)n1 [Compound S10S15D10],19.4%,55.8%
CCCCCCCCCCCCCCCCSc1nc(NCCN(CC)CC)nc(SCCCCCCCCCCCC)n1 [Compound S12S16D7],0.0%,0.7%
CCCCCCCCCCCCCCCSc1nc(NCCN2CCN(C)CC2)nc(SCCCCCCCC)n1 [Compound S8S15D5],40.0%,31.2%
CCCCCCCCCCCCCCCCSc1nc(NCCN2CCCCC2)nc(SCCCCCCCCCCCCCC)n1 [Compound S14S16D4],0.0%,0.6%
CCCCCCCCNc1nc(NCCCCCCC)nc(NCCN2CCN(C)CC2)n1 [Compound N7N8D5],0.0%,0.0%
CCCCCCCCCCCCNc1nc(NCCCCCCCCCCC)nc(NCCCN2CCN(C)CC2)n1 [Compound N11N12D9],0.3%,0.0%
CCCCCCCCCCCCCCCCCCSc1nc(NCCCN(C)C)nc(SCCCCCCCCCCCCCCCCCC)n1 [Compound S18S18D6],0.5%,0.2%
CCCCCCCCCCCCCNc1nc(NCCCCCCC)nc(NCCN2CCCC2)n1 [Compound N7N13D3],7.8%,0.0%
CCCCCCCCCCCCCCCCSc1nc(NCCCN(C)C)nc(SCCCCCCCCCCCCCCCC)n1 [Compound S16S16D6],0.5%,0.5%
CCCCCCCCCCCCCCSc1nc(NCCN(C)C)nc(SCCCCCCCCCC)n1 [Compound S10S14D1],0.1%,8.5%
CCCCCCCCCCCCCCCCCCSc1nc(NCCCN2CCN(C)CC2)nc(SCCCCCCCC)n1 [Compound S8S18D9],28.1%,17.7%
CCCCCCCCCCCCCCCSc1nc(NCCCN2CCN(C)CC2)nc(SCCCCCCCCCC)n1 [Compound S10S15D9],3.8%,3.9%
CCCCCCCCCCCSc1nc(NCCN2CCCCC2)nc(SCCCCCCCCCCC)n1 [Compound S11S11D4],0.4%,4.0%
CCCCCCCCCCCCCCCCCCNc1nc(NCCCCCCCCCCCCCCCC)nc(NCCN(CC)CC)n1 [Compound N16N18D7],0.0%,0.0%
CCCCCCCCCCCCCCCCCCNc1nc(NCCCCCC)nc(NCCCN2CCN(C)CC2)n1 [Compound N6N18D9],0.2%,0.1%
CCCCCCCCCCCCCCCCSc1nc(NCCN2CCN(C)CC2)nc(SCCCCCCCCCCCC)n1 [Compound S12S16D5],0.1%,0.1%

Compound,Absolute mRNA transfection efficiency in HEK293 cells [1],Absolute DNA transfection efficiency in HEK293 cells [2]
CCCCCCCCCCCNc1nc(NCCCCCCCCC)nc(NCCCN2CCN(C)CC2)n1 [Compound N9N11D9],0.7%,0.0%
CCCCCCCCCCCCNc1nc(NCCCCCC)nc(NCCN2CCCCC2)n1 [Compound N6N12D4],0.0%,0.0%
CCCCCCCCCCCCCCCCSc1nc(NCCN2CCCC2)nc(SCCCCCCCCCCCCCCCC)n1 [Compound S16S16D3],0.8%,0.9%
CCCCCCCCCCSc1nc(NCCN2CCCCC2)nc(SCCCCCCCCCC)n1 [Compound S10S10D4],2.5%,5.5%
CCCCCCCCCCCCCCCCNc1nc(NCCCCCCCCC)nc(NCCN(CC)CC)n1 [Compound N9N16D7],1.1%,0.0%
CCCCCCCCNc1nc(NCCCCCCC)nc(NCCN(CC)CC)n1 [Compound N7N8D7],0.0%,0.0%
CCCCCCCCCCCCNc1nc(NCCCCCCCCCCC)nc(NCCN2CCOCC2)n1 [Compound N11N12D2],0.5%,0.5%
CCCCCCCCCCCCCCCCCCNc1nc(NCCCCCCCC)nc(NCC2CCN(C)CC2)n1 [Compound N8N18D10],5.0%,1.4%
CCCCCCCCCCCCCCCCSc1nc(NCCN2CCCC2)nc(SCCCCCCCCCCC)n1 [Compound S11S16D3],0.7%,6.2%
CCCCCCCCCCCCCCCNc1nc(NCCCCCC)nc(NCC2CCN(C)CC2)n1 [Compound N6N15D10],0.7%,0.2%
CCCCCCCCCCCCCCCCCCNc1nc(NCCCCCCCCCCCCC)nc(NCCCN2CCOCC2)n1 [Compound N13N18D8],0.0%,0.0%
CCCCCCCCCCCCCCCCCCNc1nc(NCCCCCCCCCCC)nc(NCCCN2CCN(C)CC2)n1 [Compound N11N18D9],1.7%,0.0%
CCCCCCCCCCCCCCCSc1nc(NCCN2CCCCC2)nc(SCCCCCCCC)n1 [Compound S8S15D4],2.6%,11.2%
CCCCCCNc1nc(NCCCCCC)nc(NCCCN2CCN(C)CC2)n1 [Compound N6N6D9],0.2%,0.0%
CCCCCCCCCCCCCCCNc1nc(NCCCCCCCCC)nc(NCC2CCN(C)CC2)n1 [Compound N9N15D10],1.7%,0.0%
CCCCCCCCCCCCCCCCCCSc1nc(NCCCN2CCOCC2)nc(SCCCCCCCCCCCCCCC)n1 [Compound S15S18D8],0.5%,0.0%
CCCCCCCCCCCCCNc1nc(NCCCCCCCCCCC)nc(NCCCN2CCN(C)CC2)n1 [Compound N11N13D9],7.1%,0.0%
CCCCCCCCCCCCSc1nc(NCCCN2CCN(C)CC2)nc(SCCCCCCCCCCC)n1 [Compound S11S12D9],4.2%,2.4%
